Assay results published in PMC7286421 (Hypertension (Dallas, Tex. : 1979), 2019).
Each block holds one molecule with its values, some of them ahead of it. Where a SMILES comes first, the peptide text is derived from it. The star is where a group is joined. Cbz = O=C(OCc1ccccc1)*

Experiments:
[1] = system: kidney lysates; assay: Ex vivo Ang-; format: biochemical, mouse
[2] = system: mouse serum; assay: Ex vivo Ang-; format: biochemical
[3] = Plasma angiotensin peptide levels after i.p. Ang II injection; format: in vivo, mice
[4] = system: lung lysates; assay: Ex vivo Ang-; conditions: for peak Ang-(1-7) at 15 min: no inhibitor (Figure 4b)
[5] = system: lung tissue; assay: Ex vivo Ang-; format: biochemical, mouse; conditions: lung tissue (Supplement Figure S4b)
[6] = system: PRCP; conditions: selective for POP in the 10 μM range; cited from earlier work
[7] = system: Ang II; assay: In vitro Phenylalanine formation from Ang II by recombinant enzymes; format: biochemical; conditions: equivalent amounts of murine recombinant enzymes, fluorometric (Figure 6c)
[8] = ACE2−/−/PRCP−/− sera incubated with Ang II, n=3
[9] = WT mice, Ang II i.p., 5 minutes, LC/MS-MS, n=6, mean ± SE
[10] = WT sera incubated with Ang II, ZPP 10^−5M, n=6

- peak Ang-(1-7) levels ([1]; ACE2−/−/PRCP−/− kidney lysates spiked with Ang II, no inhibitor): 94 ± 18 pmol/mL
- peak Ang-(1-7) formation at 15 minutes ([1]; WT kidney lysates spiked with Ang II, no inhibitor, n=10): 417 ± 32 pmol/mL
- Ang-(1-7) formation from Ang II over time, POP−/− vs WT ([1]; kidneys from WT and POP−/− mice, no inhibitor (Figure 4c)): almost identical
- Ang-(1-7) formed at 15 minutes [2, 8]: 17.8 ± 6 pmol/mL
- Ang-(1-7) formed at 30 minutes [2, 8]: 17 ± 7 pmol/mL
- Ang-(1-7) formed at 30 minutes ([2]; WT sera incubated with Ang II, no ZPP, n=6): 31.8 ± 6.7 pmol/mL
- amount of Ang-(1-7) formed from Ang II ([2]; sera from POP−/− mice (n=4) compared to ACE2−/−/PRCP−/− and WT mice): markedly reduced
- levels of plasma Ang-(1-7) at 30 minutes ([3]; 30 minutes post infusion, WT, WT treated with ZPP, ACE2−/−/PRCP−/− (Figure S3b)): decreased markedly
- levels of plasma Ang II at 30 minutes ([3]; 30 minutes post infusion, all four groups studied (Figure S3a)): markedly decreased
- plasma Ang-(1-7) levels ([3]; ACE2−/−/PRCP−/− mice, 5 minutes after Ang II infusion, no ZPP (Figure 2b)): 537 ± 70 fmol/mL
- plasma Ang-(1-7) levels ([3]; POP−/− mice, 5 minutes after Ang II i.p. (Figure 3d)): 309 ± 46 fmol/mL
- plasma Ang-(1-7) to Ang II ratio ([3]; POP−/− mice, after Ang II infusion): 0.23±0.02
- plasma Ang-(1-7) levels ([3]; WT mice (controls of POP−/−), 5 minutes after Ang II i.p. (Figure 3d)): 472 ± 28 fmol/mL
- plasma Ang-(1-7) levels ([3]; WT mice, 5 minutes after Ang II infusion, no ZPP (Figure 2b)): 563 ± 51 fmol/mL
- plasma Ang II levels in Ang II-infused vs control animals ([3]; WT mice, 5 minutes, ELISA): about 100 fold
- plasma Ang-(1-7) levels ([3]; WT mice, Ang II 0.2 μg/g BW i.p., 5 minutes, ELISA, n=6, mean ± SE): 1268 ± 439 fmol/mL
- plasma Ang-(1-5) [3, 9]: 233 ± 24 fmol/mL
- plasma Ang-(1-7) [3, 9]: 854 ± 222 fmol/mL
- plasma Ang-(1-7) levels ([3]; WT mice, Ang II i.p., 5 minutes, RIA, same plasma samples, mean ± SE): 1702 ± 268 fmol/mL
- peak Ang-(1-7) at 15 min ([4]; ACE2−/−/PRCP−/− lung lysates incubated with Ang II): 313 ± 31 pmol/mL
- peak Ang-(1-7) at 15 min ([4]; WT lung lysates incubated with Ang II): 230 ± 33 pmol/mL
- Ang-(1-7) formation from Ang II ([4]; lung lysates from POP−/− mice, no inhibitor (Figure 4d)): almost undetectable
- peak Ang-(1-7) formation at 15 minutes ([4]; lung lysates, Ang II without S-17092 (Supplement figure S4a)): 182.8 ± 23 pmol/mL
Molecule: CC[C@H](C)[C@H](NC(=O)[C@H](Cc1ccc(O)cc1)NC(=O)[C@@H](NC(=O)[C@H](CCCNC(=N)N)NC(=O)[C@@H](N)CC(=O)O)C(C)C)C(=O)N[C@@H](Cc1cnc[nH]1)C(=O)N1CCC[C@H]1C(=O)N[C@@H](Cc1ccccc1)C(=O)O [Ang II, Angiotensin II]

Molecule: CC(C)C[C@H](N[C@@H](Cc1cncn1Cc1cc(Cl)cc(Cl)c1)C(=O)O)C(=O)O [MLN-4760]
- generation of Ang-(1-7) from Ang II with MLN-4760 ([1]; POP−/− kidney lysates, MLN-4760 10^−5M (Figure 4c)): completely obliterated
- effect of MLN-4760 on Ang-(1-7) formation ([4]; POP−/− lungs (Figure 4d)): no effect

Molecule: O=C(O)CNC(=O)C(CS)Cc1ccccc1 (stereo not drawn) [Thiorphan]
- peak formation of Ang-(1-7) from exogenous Ang I with inhibitor [5]: reduced the peak level of Ang-(1-7) from Ang I to an extent similar to S-17092

Molecule: O=C[C@@H]1CCCN1C(=O)[C@@H]1CCCN1C(=O)OCc1ccccc1 [ZPP, Z-Pro-Prolinal] (Cbz-Pro-Pro-aldehyde)
- Ang-(1-7) levels with ZPP ([1]; ACE2−/−/PRCP−/− kidney lysates, ZPP, n=7, all time points assessed): undetectable
- Ang-(1-7) formation at 15 minutes with ZPP ([1]; WT kidney lysates spiked with Ang II plus ZPP): 417 ± 32 pmol/mL
- Ang-(1-7) formed at 15 minutes with ZPP [2, 10]: 4.5 ± 4.5 pmol/mL
- Ang-(1-7) formed at 30 minutes with ZPP [2, 10]: 8.9 ± 4.5 pmol/mL
- lowering of Ang-(1-7) formation at 15 minutes ([2]; WT sera, ZPP 10^−5M): 85,8%
- lowering of Ang-(1-7) formation at 30 minutes ([2]; WT sera, ZPP 10^−5M): 72%
- concentration at which ZPP also inhibits PRCP [6]: > 100 µM
- Ang-(1-7) formation from Ang II with ZPP ([4]; lung lysates from both WT and ACE2−/−/PRCP−/− mice (Figure 4b)): completely prevented

- Phenylalanine generation from Ang II [7]: 127±12 RFU/ng
Molecule: mrPOP: murine recombinant Prolyl Oligopeptidase

- Phenylalanine generation from Ang II [7]: 789±29 RFU/ng
B1: mrACE2: murine recombinant Angiotensin Converting Enzyme 2 (protein, UniProt Q8R0I0 18-805, looked up)
Angiotensin-converting enzyme …: QSLTEENAKTFLNNFNQEAEDLSYQSSLASWNYNTNITEENAQKMSEAAAKWSAFYEEQSKTAQSFSLQEIQTPIIKRQLQALQQSGSSALSADKNKQLNTILNTMSTIYSTGKVCNPKNPQECLLLEPGLDEIMATSTDYNSRLWAWEGWRAEVGKQLRPLYEEYVVLKNEMARANNYNDYGDYWRGDYEAEGADGYNYNRNQLIEDVERTFAEIKPLYEHLHAYVRRKLMDTYPSYISPTGCLPAHLLGDMWGRFWTNLYPLTVPFAQKPNIDVTDAMMNQGWDAERIFQEAEKFFVSVGLPHMTQGFWANSMLTEPADGRKVVCHPTAWDLGHGDFRIKMCTKVTMDNFLTAHHEMGHIQYDMAYARQPFLLRNGANEGFHEAVGEIMSLSAATPKHLKSIGLLPSDFQEDSETEINFLLKQALTIVGTLPFTYMLEKWRWMVFRGEIPKEQWMKKWWEMKREIVGVVEPLPHDETYCDPASLFHVSNDYSFIRYYTRTIYQFQFQEALCQAAKYNGSLHKCDISNSTEAGQKLLKMLSLGNSEPWTKALENVVGARNMDVKPLLNYFQPLFDWLKEQNRNSFVGWNTEWSPYADQSIKVRISLKSALGANAYEWTNNEMFLFRSSVAYAMRKYFSIIKNQTVPFLEEDVRVSDLKPRVSFYFFVTSPQNVSDVIPRSEVEDAIRMSRGRINDVFGLNDNSLEFLGIHPTLEPPYQPPVTIWLIIFGVVMALVVVGIIILIVTGIKGRKKKNETKREENPYDSMDIGKGESNAGFQNSDDAQTSF
